ChEMBL document CHEMBL1201862, “PubChem BioAssay data set” (2004)
The source made the active and inactive calls.

Assays:
[1] = biological target: T1, Intestinal-type alkaline phosphatase (Homo sapiens, UniProt P09923); assay: human intestinal alkaline phosphatase activators, dose response, biochemical, luminescence, uHTS hits (AID 463120); assay type: functional
[2] = biological target: T2, Alkaline phosphatase, tissue-nonspecific isozyme (Homo sapiens, UniProt P05186); assay: activation of tissue-nonspecific alkaline phosphatase – biochemical, TNAP isozyme, human IAP uHTS hits, selectivity assay for human IAP activator project, dose response (AID 488886); assay type: functional;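 further: potency of compounds raising TNAP activity as a selectivity check on IAP activators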
T2 sequence (P05186 whole entry): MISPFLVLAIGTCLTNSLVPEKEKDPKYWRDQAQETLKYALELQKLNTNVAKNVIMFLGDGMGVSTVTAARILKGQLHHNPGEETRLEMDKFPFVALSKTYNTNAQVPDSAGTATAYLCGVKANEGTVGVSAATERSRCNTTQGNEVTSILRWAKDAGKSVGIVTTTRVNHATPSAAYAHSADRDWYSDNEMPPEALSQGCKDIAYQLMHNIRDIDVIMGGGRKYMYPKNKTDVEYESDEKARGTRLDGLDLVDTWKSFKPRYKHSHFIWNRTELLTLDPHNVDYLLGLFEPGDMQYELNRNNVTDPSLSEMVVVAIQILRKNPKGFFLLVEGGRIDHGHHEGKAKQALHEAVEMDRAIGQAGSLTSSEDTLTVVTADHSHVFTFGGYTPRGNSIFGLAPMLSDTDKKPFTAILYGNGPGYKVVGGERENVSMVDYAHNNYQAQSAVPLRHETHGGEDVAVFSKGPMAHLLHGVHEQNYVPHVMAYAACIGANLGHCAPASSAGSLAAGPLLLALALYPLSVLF

[3] = biological target: T2, Alkaline phosphatase, tissue-nonspecific isozyme
[4] = biological target: T1, Intestinal-type alkaline phosphatase; assay: activation of human intestinal alkaline phosphatase – biochemical, luminescent, uHTS hits, set 2, dose response (AID 488817); assay type: functional;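 further: potency of activators that raise enzyme activity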
[5] = biological target: Intestinal-type alkaline phosphatase (Mus musculus, UniProt P24822); assay: PubChem AID 488874; assay type: functional
Coagulation factor XII = biological target: T3, Coagulation factor XII (Homo sapiens, UniProt P00748); assay: activated coagulation factor XII inhibitor potency, concentration-effect curve, cell-free (AID 716); assay type: functional
T3 sequence (P00748 whole entry): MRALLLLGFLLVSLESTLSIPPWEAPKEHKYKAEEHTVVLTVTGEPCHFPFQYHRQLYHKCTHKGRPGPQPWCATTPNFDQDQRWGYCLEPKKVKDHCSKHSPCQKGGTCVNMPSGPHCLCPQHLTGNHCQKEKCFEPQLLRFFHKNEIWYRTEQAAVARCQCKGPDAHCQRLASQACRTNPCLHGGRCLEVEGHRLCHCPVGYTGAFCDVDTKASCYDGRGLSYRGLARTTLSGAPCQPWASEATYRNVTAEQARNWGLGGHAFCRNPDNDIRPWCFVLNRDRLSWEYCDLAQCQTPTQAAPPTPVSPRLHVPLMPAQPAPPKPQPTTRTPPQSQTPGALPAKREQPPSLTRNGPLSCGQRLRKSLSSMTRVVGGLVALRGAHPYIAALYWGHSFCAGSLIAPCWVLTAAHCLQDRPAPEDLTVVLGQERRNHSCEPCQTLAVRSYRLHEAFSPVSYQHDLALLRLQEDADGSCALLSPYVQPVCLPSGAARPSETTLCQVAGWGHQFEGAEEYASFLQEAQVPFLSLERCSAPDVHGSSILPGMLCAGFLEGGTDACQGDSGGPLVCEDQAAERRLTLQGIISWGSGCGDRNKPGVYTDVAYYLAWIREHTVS

[6] = biological target: T4, Neuropeptides B/W receptor type 1 (Homo sapiens, UniProt P48145); assay: Fluorescence-based dose response cell-based high throughput screening assay to identify antagonists of the G-protein coupled receptor 7 (GPR7). [Related pubchem assays: 1952 (Screening assay (GPR7 antagonists).), 1880 (Summary AID.)]; assay type: functional
T4 sequence (P48145 whole entry): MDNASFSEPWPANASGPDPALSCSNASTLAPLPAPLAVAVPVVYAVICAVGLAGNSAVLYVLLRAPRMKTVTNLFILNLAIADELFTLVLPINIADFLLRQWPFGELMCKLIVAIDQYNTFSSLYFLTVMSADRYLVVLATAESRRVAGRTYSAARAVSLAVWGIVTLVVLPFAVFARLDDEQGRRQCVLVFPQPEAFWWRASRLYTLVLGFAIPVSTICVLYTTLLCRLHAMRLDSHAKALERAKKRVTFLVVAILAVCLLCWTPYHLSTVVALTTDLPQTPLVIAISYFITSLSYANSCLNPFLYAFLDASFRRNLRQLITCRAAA

[7] = A549 cell cytotoxicity, dose response, cytotoxicity control, plate reader, cherry-pick, antagonist series (AID 743412); assay type: functional, cell-based
[8] = viability loss in HEK293 cells – cell-based, plate reader, cherry-picked samples, cytotoxicity control, dose response (AID 743446); assay type: functional
[9] = biological target: T5, Melanin-concentrating hormone receptor 1 (Homo sapiens, UniProt Q99705); assay: Fluorescence-based counterscreen for antagonists of the G-protein coupled receptor 7 (GPR7): cell-based high throughput dose response assay to identify antagonists of the melanin-concentrating hormone receptor 1 (MCHR1).; assay type: functional
[10] = biological target: T4, Neuropeptides B/W receptor type 1; assay: human NPBW1 receptor blockade, IC50 – cell-based, fluorescence, dose response, late-stage follow-up (AID 463251); assay type: functional
[11] = biological target: T5, Melanin-concentrating hormone receptor 1; assay: Late-stage fluorescence-based counterscreen for antagonists of the G-protein coupled receptor 7 (GPR7): cell-based dose response assay to identify antagonists of the melanin-concentrating hormone receptor 1 (MCHR1). [Related pubchem assays (depositor defined):AID1861, AID1880, AID1952, AID2148, AID2251, AID2257, AID485339]; assay type: functional
[12] = toxicity toward HepG2 liver cells – cell-based, plate reader, cherry-pick, antagonist series, cytotoxicity control, dose response (AID 743416); assay type: functional
Saccharomyces cerevisiae = assay: S. cerevisiae Caspase-1/ASC signal blockers IC50, NALP1 inhibitor project selectivity test (AID 488863); assay type: functional, organism-based
[13] = biological target: T6, Corticotropin-releasing factor receptor 2/Corticotropin-releasing factor-binding protein (Homo sapiens, UniProt P24387+Q13324); assay: activators of CRF receptor 2 with binding protein – uHTS hits, confirmation (AID 602473); assay type: functional; conditions: read-out: EC50_Mean
T6 sequence (Q13324 whole entry): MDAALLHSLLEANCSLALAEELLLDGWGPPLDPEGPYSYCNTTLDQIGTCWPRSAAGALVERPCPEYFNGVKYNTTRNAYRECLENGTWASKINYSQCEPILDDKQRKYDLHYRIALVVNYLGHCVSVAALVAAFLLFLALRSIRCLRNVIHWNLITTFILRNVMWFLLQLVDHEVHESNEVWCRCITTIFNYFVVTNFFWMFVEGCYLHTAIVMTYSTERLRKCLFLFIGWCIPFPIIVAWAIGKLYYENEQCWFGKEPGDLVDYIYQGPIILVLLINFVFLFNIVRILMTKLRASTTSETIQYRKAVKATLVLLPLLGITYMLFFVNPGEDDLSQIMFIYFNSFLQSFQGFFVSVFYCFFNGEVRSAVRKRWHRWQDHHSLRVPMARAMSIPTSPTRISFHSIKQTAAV
T6 sequence (P24387 whole entry): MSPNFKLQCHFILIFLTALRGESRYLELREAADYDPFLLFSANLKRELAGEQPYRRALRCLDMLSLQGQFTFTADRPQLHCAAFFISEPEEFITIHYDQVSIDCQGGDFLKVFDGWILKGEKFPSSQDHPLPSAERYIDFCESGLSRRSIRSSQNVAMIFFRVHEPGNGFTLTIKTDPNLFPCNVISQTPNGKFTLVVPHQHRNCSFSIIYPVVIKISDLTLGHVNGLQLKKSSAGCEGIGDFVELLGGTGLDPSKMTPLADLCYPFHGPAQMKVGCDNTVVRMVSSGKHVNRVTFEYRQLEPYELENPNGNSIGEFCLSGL

[14] = biological target: NACHT, LRR and PYD domains-containing protein 1 (Homo sapiens, UniProt Q9C000); assay: NALP1 inhibitors in yeast, dose response, luminescent (AID 488860); assay type: functional
[15] = biological target: Voltage-dependent T-type calcium channel subunit alpha-1H (Homo sapiens, UniProt O95180); assay: human CACNA1H calcium influx blockade – cell-based, synthetic library set 1, calcium flux (AID 493022); assay type: functional
[16] = biological target: Glucose-6-phosphate 1-dehydrogenase (Homo sapiens, UniProt P11413); assay: inhibition of Homo sapiens G6PD, dose series – biochemical, fluorescence, selectivity assay for P. falciparum G6PD inhibitor project, dose response (AID 504792); assay type: functional
Hexokinase = Hexokinase (Trypanosoma brucei, UniProt Q38C41); assay: Confirmation assay for inhibitors of Trypanosoma brucei hexokinase 1-Analogue-first series. [Related pubchem assays (depositor defined):AID1430, AID1632, AID2516, AID2560, AID2579, AID2600, AID449725, AID492951]; assay type: functional
[17] = biological target: T7, Rac GTPase-activating protein 1 (Homo sapiens, UniProt Q9H0H5); assay: blockers of MgcRacGAP-driven Rac1 GTP hydrolysis – biochemical, ADP Hunter fluorescence, primary and confirmatory, confirmation (AID 624330); assay type: functional
T7 sequence (Q9H0H5 whole entry): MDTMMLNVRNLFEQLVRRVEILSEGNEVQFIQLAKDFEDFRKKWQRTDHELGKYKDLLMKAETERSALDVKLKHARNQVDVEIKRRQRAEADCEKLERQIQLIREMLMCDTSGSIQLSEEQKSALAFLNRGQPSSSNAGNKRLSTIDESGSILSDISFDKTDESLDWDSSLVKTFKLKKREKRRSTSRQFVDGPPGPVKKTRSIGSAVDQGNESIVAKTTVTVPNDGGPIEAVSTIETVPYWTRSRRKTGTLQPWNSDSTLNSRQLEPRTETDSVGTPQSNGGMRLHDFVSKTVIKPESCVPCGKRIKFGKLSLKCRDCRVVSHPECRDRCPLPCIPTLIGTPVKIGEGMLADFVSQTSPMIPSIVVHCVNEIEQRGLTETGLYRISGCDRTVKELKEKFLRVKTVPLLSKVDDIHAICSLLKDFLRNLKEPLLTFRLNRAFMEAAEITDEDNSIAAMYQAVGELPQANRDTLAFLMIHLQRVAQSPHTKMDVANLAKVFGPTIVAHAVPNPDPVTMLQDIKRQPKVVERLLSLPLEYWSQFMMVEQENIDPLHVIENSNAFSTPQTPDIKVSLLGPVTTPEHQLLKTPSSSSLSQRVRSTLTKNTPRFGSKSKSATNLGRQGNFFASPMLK

[18] = biological target: T8, Mannose-6-phosphate isomerase (Homo sapiens, UniProt P34949); assay: phosphomannose isomerase inhibition – biochemical, fluorescence intensity, confirmation (AID 1535)
T8 sequence (P34949 whole entry): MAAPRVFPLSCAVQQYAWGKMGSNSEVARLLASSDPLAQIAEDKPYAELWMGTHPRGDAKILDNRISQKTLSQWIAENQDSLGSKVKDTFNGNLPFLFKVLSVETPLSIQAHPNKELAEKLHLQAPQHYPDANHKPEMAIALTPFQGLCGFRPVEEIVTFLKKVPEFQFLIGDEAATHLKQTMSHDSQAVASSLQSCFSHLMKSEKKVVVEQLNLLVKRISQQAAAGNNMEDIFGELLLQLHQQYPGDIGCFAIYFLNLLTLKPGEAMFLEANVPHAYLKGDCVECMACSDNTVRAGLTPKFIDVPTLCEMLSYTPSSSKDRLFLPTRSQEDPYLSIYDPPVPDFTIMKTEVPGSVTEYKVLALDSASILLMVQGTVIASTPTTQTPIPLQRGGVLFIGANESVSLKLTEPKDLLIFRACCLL

[19] = biological target: Phosphoethanolamine/phosphocholine phosphatase (Homo sapiens, UniProt Q8TCT1); assay: SAR assay for compounds that inhibit PHOSPHO1. [Related pubchem assays (depositor defined):AID1545, AID1565, AID1574]
[20] = biological target: G-protein coupled receptor 55 (Homo sapiens, UniProt Q9Y2T6); assay: selective activators of receptor GPR55 – imaging, U2OS cells, beta-arrestin-GFP redistribution, primary screen (AID 1961); assay type: functional
Chain of G-protein coupled receptor 55 (Q9Y2T6 whole entry): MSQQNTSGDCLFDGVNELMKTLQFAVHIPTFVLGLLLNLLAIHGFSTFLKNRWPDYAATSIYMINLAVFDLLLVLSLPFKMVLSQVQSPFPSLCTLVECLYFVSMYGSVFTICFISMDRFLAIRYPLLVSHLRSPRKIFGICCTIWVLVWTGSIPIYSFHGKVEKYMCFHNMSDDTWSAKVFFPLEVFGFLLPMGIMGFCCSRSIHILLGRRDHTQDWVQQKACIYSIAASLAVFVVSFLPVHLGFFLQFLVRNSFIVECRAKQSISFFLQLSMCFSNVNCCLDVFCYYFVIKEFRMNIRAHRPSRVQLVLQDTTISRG

T5 sequence (Q99705 whole entry): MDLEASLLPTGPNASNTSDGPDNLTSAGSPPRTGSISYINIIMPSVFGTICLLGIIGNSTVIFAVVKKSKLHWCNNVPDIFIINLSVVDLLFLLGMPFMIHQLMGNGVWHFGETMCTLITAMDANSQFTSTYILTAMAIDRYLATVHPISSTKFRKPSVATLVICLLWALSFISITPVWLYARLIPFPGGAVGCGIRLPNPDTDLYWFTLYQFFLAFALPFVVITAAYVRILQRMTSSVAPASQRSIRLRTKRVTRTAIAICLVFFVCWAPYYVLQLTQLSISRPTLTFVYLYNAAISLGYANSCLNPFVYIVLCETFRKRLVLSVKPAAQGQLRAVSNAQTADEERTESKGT
T1 sequence (P09923 whole entry): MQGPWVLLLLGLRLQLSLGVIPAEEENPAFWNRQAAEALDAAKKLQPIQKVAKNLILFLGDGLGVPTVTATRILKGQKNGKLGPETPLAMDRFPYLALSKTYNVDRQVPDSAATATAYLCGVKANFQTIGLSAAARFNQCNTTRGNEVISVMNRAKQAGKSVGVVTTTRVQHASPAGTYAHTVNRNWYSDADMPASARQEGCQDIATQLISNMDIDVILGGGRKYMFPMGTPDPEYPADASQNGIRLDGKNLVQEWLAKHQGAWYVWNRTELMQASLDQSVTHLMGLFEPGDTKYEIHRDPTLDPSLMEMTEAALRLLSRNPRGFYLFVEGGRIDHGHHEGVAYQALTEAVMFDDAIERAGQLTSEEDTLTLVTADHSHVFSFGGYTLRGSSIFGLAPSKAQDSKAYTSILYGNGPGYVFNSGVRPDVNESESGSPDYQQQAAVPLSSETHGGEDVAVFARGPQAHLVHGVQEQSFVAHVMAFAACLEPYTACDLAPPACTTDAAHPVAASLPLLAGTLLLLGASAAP
Chain of NACHT, LRR and PYD domains-containing protein 1 (Q9C000 1-1212 limits assumed): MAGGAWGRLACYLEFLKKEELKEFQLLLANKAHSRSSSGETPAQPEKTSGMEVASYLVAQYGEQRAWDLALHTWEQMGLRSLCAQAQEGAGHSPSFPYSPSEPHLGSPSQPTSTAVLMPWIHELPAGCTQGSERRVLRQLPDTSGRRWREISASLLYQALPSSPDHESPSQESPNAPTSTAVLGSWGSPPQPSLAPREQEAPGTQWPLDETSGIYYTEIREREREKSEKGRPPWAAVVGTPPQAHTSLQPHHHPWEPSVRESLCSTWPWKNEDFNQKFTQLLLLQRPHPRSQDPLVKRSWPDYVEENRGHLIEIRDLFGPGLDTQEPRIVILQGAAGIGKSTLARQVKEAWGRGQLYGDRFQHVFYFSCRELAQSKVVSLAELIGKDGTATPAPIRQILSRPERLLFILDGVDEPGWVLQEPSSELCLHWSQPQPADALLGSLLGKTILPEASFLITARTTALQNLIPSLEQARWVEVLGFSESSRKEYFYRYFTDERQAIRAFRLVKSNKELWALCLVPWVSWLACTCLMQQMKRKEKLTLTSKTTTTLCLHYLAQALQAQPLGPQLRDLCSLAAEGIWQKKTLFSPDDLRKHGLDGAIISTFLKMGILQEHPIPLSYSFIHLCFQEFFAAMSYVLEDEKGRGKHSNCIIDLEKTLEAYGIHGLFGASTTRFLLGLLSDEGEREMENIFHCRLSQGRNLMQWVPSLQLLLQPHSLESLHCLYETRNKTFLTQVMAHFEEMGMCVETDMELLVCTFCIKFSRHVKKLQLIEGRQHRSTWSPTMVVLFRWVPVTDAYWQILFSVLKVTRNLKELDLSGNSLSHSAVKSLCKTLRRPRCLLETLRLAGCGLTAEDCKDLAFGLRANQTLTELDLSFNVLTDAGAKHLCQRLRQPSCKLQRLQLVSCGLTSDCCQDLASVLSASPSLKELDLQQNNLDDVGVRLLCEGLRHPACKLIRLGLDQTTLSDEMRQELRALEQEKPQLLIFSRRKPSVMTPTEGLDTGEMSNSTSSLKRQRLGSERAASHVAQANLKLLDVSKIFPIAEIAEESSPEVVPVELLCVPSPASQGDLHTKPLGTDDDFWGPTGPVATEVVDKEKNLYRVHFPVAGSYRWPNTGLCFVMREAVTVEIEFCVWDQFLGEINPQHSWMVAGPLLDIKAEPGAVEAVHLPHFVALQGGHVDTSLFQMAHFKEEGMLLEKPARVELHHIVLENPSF
Chain of NACHT, LRR and PYD domains-containing protein 1 (Q9C000 1213-1473 limits assumed): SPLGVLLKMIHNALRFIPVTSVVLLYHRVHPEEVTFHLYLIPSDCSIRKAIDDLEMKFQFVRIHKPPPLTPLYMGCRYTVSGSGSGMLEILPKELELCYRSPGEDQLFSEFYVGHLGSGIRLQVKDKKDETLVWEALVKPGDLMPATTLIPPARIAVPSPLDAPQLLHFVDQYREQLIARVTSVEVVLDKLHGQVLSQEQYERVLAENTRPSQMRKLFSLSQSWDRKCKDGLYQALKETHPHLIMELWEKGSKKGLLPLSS
Chain of Glucose-6-phosphate 1-dehydrogenase (P11413 whole entry): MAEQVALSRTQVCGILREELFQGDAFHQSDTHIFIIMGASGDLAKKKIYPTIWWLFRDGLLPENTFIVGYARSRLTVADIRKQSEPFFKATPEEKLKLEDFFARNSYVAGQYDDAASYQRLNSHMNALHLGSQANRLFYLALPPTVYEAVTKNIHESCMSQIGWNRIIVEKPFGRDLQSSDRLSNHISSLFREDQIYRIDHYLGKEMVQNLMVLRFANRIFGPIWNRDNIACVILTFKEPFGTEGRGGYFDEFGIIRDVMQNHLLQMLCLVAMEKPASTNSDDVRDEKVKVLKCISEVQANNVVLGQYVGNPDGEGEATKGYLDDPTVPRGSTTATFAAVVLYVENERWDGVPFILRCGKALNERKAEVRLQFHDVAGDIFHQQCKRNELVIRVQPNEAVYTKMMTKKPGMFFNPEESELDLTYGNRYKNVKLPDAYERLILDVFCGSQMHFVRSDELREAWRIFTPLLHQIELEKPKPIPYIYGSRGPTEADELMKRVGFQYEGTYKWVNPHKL
Chain of Intestinal-type alkaline phosphatase (Mus musculus, UniProt P24822) (P24822 whole entry): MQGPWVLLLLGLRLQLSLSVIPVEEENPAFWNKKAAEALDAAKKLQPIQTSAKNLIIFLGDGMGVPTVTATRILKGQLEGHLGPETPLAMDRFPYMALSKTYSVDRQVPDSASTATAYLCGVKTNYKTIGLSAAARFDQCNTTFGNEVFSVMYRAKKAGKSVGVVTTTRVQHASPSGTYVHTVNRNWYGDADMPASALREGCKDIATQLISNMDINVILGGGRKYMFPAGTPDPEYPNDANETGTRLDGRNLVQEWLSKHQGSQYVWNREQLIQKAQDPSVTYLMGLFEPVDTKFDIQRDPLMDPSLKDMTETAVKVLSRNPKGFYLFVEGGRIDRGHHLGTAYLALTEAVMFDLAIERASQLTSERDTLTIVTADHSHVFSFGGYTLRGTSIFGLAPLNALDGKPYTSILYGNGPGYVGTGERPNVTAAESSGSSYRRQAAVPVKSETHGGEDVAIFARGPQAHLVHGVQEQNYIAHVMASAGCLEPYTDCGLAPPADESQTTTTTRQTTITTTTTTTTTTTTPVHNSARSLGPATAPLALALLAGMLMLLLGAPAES
Chain of Hexokinase (Q38C41 whole entry): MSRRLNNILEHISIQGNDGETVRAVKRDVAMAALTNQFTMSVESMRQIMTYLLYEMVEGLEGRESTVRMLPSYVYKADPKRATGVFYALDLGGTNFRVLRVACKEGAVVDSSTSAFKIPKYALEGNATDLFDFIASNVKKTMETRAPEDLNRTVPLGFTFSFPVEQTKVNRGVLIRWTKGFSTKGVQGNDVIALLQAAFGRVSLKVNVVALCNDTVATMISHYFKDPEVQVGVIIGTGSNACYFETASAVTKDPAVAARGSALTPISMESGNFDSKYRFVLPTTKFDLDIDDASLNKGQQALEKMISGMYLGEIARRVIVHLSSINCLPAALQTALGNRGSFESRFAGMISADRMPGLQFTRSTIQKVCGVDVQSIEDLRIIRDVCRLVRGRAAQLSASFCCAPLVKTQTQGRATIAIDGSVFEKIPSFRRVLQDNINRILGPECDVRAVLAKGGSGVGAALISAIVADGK
Chain of Phosphoethanolamine/phosphocholine phosphatase (Q8TCT1 whole entry): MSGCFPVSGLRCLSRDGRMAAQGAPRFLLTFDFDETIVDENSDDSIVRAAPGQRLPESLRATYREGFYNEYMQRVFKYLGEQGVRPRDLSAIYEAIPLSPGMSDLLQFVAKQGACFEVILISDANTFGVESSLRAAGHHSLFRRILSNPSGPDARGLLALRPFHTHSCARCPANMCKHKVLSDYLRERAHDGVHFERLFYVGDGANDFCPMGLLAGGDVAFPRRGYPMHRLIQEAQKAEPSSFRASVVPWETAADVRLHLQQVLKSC

## CC(C)C(=O)NC(=S)Nc1ccccc1C(=O)Nc1ccccc1
[1]
  EC50: 6.41 µM (active)
[2]
  EC50: 10.2 µM (active)
[3]
  EC50: > 100 µM (not active)
[4]
  EC50: 7.62 µM (active)
[5]
  IC50: 50 µM (active)

## COCCn1nnnc1C(c1cc2ccc(C)cc2[nH]c1=O)N(Cc1ccco1)Cc1cccs1 (stereo not drawn)
Coagulation factor XII
  IC50: > 50 µM (inactive)

## O=[N+]([O-])c1cc(S(=O)(=O)N2CCCCCC2)ccc1Cl
[6]
  IC50: 2.88 µM (active)
[7]
  AC50: > 52 µM (inactive)
[8]
  AC50: > 52 µM (inactive)
[9]
  IC50: 8.01 µM (active)
[10]
  IC50: 5.8 µM (active)
[11]
  IC50: 10.1 µM (inactive)
[12]
  AC50: > 52 µM (inactive)

## COc1ccc(C2=C/C(=C/c3cccnc3)C(=O)O2)cc1OC
Saccharomyces cerevisiae
  IC50: > 100 µM (inactive)
[13]
  EC50: 3.91 µM (active)
[14]
  IC50: > 100 µM (inactive)

## O=C(COc1ccccc1F)Nc1nnc(-c2ccc3ccccc3c2)o1
[15]
  EC50: 1.8 µM (active)

## O=C(Cn1sc2ccccc2c1=O)Nc1ccccc1
[16]
  IC50: 12.7 µM (active)
Hexokinase
  IC50: 6.69 µM (active)
[17]
  IC50: 73.1 µM (active)

## O=c1c2c([N+](=O)[O-])cc([N+](=O)[O-])cc2sn1-c1ccc(OC(F)(F)Cl)cc1
[18]
  IC50: 2.14 µM (active)
[19]
  IC50: 0.233 µM (active)

## CCN(CC)c1ccc2nc3c4ccccc4c(=O)cc-3oc2c1 [NILE RED]
[20]
  EC50: < 0.5 µM (active)
